Melting point and Ki data for eleven compounds are collected here from patent publication US20010051612A1, “2-Thioether A2A receptor agonists” (priority 2000, published 2001).

For one series, the target named is T1, A2A adenosine receptor (Sus scrofa, UniProt K9IW67).
T1 construct: from tissue; host or cells: pig striatum membranes
In words: Affinity for the A2A receptor in a pig striatum membrane prep (displacement of tritiated ZM 241385). It counts as binding. Conditions: pig striatal membranes, [3H]ZM 241385 2 nM, 23° C. 2h, Ki from IC50. On the procedure:
Compositions of this invention were assayed to determine their affinity for the A2A receptor in a pig striatum membrane prep. 0.2 mg of pig striatal membranes were treated with adenosine deaminase and 50 mM Tris buffer (pH=7.4) followed by mixing. […] After incubation at 23° C. for 2h, the solutions were filtered using a membrane harvester using multiple washing of the membranes (3×). The filter disks were counted in scintillation cocktail affording the amount of displacement of tritiated ZM by the competitive binding compositions of this invention. Greater than a 5 point curve was used to generate IC50's and the number of experiments (n) is indicated in the column marked in Tables 3-4 below. The Chang-Prusoff equation was used to generate Ki's from the IC50 data.

For another series, the target named is T2, A1 (Homo sapiens, UniProt P30542).
T2 sequence (P30542 1-326): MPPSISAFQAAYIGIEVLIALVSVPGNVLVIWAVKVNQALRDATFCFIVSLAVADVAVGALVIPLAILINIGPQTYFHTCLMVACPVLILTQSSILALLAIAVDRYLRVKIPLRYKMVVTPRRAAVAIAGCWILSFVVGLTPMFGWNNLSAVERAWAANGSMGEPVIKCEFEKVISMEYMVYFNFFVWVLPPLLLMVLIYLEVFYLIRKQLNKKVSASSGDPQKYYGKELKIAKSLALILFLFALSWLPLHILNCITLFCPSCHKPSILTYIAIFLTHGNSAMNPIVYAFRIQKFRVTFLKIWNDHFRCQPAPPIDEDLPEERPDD
In words: Affinity for the A1 receptor (Ki column, no method described). It is filed as binding. Conditions: compounds 1a-5a table.

T1 sequence (K9IW67 1-409): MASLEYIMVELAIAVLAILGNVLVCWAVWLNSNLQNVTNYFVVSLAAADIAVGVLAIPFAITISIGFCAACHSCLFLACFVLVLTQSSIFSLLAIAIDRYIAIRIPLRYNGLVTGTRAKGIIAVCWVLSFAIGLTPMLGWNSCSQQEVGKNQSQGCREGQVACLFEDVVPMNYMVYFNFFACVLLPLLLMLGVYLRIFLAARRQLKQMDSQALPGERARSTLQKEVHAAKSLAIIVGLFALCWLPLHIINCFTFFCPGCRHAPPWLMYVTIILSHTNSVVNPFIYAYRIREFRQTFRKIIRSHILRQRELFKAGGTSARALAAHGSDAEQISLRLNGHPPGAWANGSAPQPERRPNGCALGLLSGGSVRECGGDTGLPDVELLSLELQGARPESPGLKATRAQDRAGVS

As for `CCCCCSc1nc(N)c2ncn([C@@H]3O[C@H](C(=O)NCC)[C@@H](O)[C@H]3O)c2n1` [Compound 5a, [(2S, 3S, 4R, 5R)-5-(6-amino-2-pentylthiopurin-9-yl)-3,4-dihydroxyoxolan-2-yl]-N-ethylcarboxamide], the melting point was > 270 °C (dec.). The inhibitory constant (Ki) at A2A adenosine receptor (compounds 1a-5a) was 4310 nM. In turn, `Nc1nc(SCCCc2ccccc2)nc2c1ncn2[C@@H]1O[C@H](CO)[C@@H](O)[C@H]1O` [Compound 4, (4S, 2R, 3R, 5R)-2-(6-amino-2-phenylpropylthiopurin-9-yl)-5-(hydroxymethyl)oxolane-3,4-diol] had a Ki on A2A adenosine receptor (Table 3, compounds 1-7) of over 10000 nM. Turning to `CCNC(=O)[C@H]1O[C@@H](n2cnc3c(N)nc(SCCCc4ccccc4)nc32)[C@H](O)[C@@H]1O` [Compound 4a, [(2S, 3S, 4R, 5R)-5-(6-amino-2-(phenylpropylthio)purin-9-yl)-3,4-dihydroxyoxolan-2-yl]-N-ethylcarboxamide], the melting point lay in the range of 185 to 188 °C. This compound yielded a Ki at A2A adenosine receptor (compounds 1a-5a) of 6280 nM.

Consider `CCNC(=O)[C@H]1O[C@@H](n2cnc3c(N)nc(SCCc4ccccc4)nc32)[C@H](O)[C@@H]1O` [Compound 3a, [(2S, 3S, 4R, 5R)-5-(6-amino-2-(phenylethylthio)purin-9-yl)-3,4-dihydroxyoxolan-2-yl]-N-ethylcarboxamide], for which the melting point lay in the range of 97 to 99 °C. The Ki on A2A adenosine receptor (compounds 1a-5a) amounted to 85 nM. This compound also came in with a Ki on A1 of over 10000 nM. Regarding `CCNC(=O)[C@H]1O[C@@H](n2cnc3c(N)nc(SCc4ccccc4)nc32)[C@H](O)[C@@H]1O` [Compound 2a, [(2S, 3S, 4R, 5R)-5-(6-amino-2-(phenylmethylthio)purin-9-yl)-3,4-dihydroxyoxolan-2yl]-N-ethylcarboxamide], the melting point was 245 °C (dec.). This compound returned an inhibition constant Ki at A2A adenosine receptor (compounds 1a-5a) of over 10000 nM. For `CCNC(=O)[C@H]1O[C@@H](n2cnc3c(N)nc(Sc4ccccc4)nc32)[C@H](O)[C@@H]1O` [Compound 1a, [(2S, 3S, 4R, 5R)-5-(6-amino-2-phenylthiopurin-9-yl)-3,4-dihydroxyoxolan-2yl]-N -ethylcarboxamide] the same measures were 122 to 125 °C and 6120 nM. Regarding `Nc1nc(Sc2ccccc2)nc2c1ncn2[C@@H]1O[C@H](CO)[C@@H](O)[C@H]1O` [Compound 1, (4S, 2R, 3R, 5R)-2-(6-amino-2-phenylthiopurin-9-yl)-5-(hydroxymethyl)oxolane-3,4-diol], the melting point fell in the range of 137 to 139 °C. On A2A adenosine receptor (Table 3, compounds 1-7), this compound displayed a Ki of over 10000 nM. `CCCCCSc1nc(N)c2ncn([C@@H]3O[C@H](CO)[C@@H](O)[C@H]3O)c2n1` [Compound 5, (4S, 2R,3R, 5R)-2-(6-amino-2-pentyltiopurin-9-yl)-5-(hydroxymethymethyl)oxolane-3,4-diol]: the melting point is 177 °C (dec.). At A2A adenosine receptor (Table 3, compounds 1-7), the Ki was over 10000 nM. With `Nc1nc(SC2CCCC2)nc2c1ncn2[C@@H]1O[C@H](CO)[C@@H](O)[C@H]1O` [Compound 7, (4S, 2R, 3R, 5R)-2-(6-amino-2-cyclopentylthiopurin-9-yl)-5-(hydroxymethyl)oxolane-3,4-diol], the melting point is 213 °C (dec.). This compound displayed a Ki at A2A adenosine receptor (Table 3, compounds 1-7) of over 10000 nM. The compound `Nc1nc(SCCCCO)nc2c1ncn2[C@@H]1O[C@H](CO)[C@@H](O)[C@H]1O` [Compound 6, (4S, 2R, 3R, 5R)-2-(6-amino-2-(4-hydroxybutylthio)purin-9-yl)-5-(hydroxymethyl)oxolane-3,4-diol] registered a melting point of 88 to 90 °C. On A2A adenosine receptor (Table 3, compounds 1-7), this compound yielded a Ki of over 100000 nM.

At A2A adenosine receptor (Table 3, compounds 1-7), `Nc1nc(SCc2ccccc2)nc2c1ncn2[C@@H]1O[C@H](CO)[C@@H](O)[C@H]1O` [Compound 2, (4S, 2R. 3R, 5R)-2-(6-amino-2-phenylmethylthiopurin-9-yl)-5-(hydroxymethyl)-oxolane-3,4-diol] came in with an inhibition constant Ki of 9540 nM.
